In patent US10934304B2, “Spirocyclic compounds” (Recurium IP Holdings, LLC, priority 2016, dated 2021):

Key:
ERK2 = ERK2 (Homo sapiens (Human), UniProt P28482); assay: Active ERK1 and ERK2 Kinase Assay (Mobility Shift Assay); assay type: biochemical; conditions: activated ERK2, Mobility Shift Assay
Outline: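 Mobility shift assay: compound preincubated with activated kinase 30 min at rt in 20 mM HEPES pH 7.5, 0.01% Triton X-100, 2 mM DTT. Reaction started with fluorescent substrate, ATP and metal, run 1 h at rt; activity taken as product ratio P/(P+S) after LabChip peptide separation.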

A375 (melanoma) cells = assay: Proliferation Assay (CellTiter-Glo); assay type: cell-based; conditions: 3 days incubation, CellTiter-Glo luminescence
Outline: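 A375 cells in RPMI-1640 with 10% FBS, plated overnight, then exposed to 10-point 3-fold serial compound dilutions for 3 days at 37° C, 5% CO2. Viability read by CellTiter-Glo luminescence.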

Sequence of ERK2 (P28482 whole entry): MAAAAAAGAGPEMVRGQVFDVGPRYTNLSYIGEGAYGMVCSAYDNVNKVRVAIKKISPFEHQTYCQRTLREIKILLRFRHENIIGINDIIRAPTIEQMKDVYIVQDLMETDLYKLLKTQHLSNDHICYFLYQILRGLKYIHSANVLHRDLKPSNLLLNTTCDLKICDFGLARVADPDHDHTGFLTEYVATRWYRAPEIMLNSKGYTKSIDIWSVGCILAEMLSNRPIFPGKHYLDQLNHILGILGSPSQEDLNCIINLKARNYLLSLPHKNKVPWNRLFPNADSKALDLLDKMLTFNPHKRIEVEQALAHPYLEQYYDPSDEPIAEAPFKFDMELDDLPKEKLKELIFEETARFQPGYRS

IC50 (ERK2)	IC50 (A375 (melanoma) cells)	IC50 (A375 (melanoma) cells; Homo sapiens, A-375, 72 h)	Structure (SMILES)
≤ 50 nM	500 to 1000 nM		CC(C)Oc1ccc(-c2n[nH]c3ccc(N4CC[C@]5(CCN(CC(=O)N6CCC(c7ccc(-c8ncn(C)n8)cc7)CC6)C5)C4=O)nc23)cn1 [Example 71]
≤ 50 nM	≤ 500 nM		Cc1cc(-c2n[nH]c3ccc(N4CC[C@]5(CCN(CC(=O)N6CCN(c7ccc(-c8ncn(C)n8)cn7)CC6)C5)C4=O)nc23)ccn1 [Example 44]
≤ 50 nM		≥ 1000 nM	Cn1cnc(-c2ccc(C3=CCN(C(=O)CN4CC[C@]5(CCN(c6ccc7[nH]nc(N8CCCC8)c7c6)C5=O)C4)CC3)cc2)n1 [Example 11, (S)-7-(2-(4-(4-(1-Methyl-1H-1,2,4-triazol-3-yl)phenyl)-5,6-dihydropyridin-1(2H)-yl)-2-oxoethyl)-2-(3-(pyrrolidin-1-yl)-1H-indazol-5-yl)-2,7-diazaspiro[4.4]nonan-1-one]
